Measured values taken from US7144452B2, “Ink jet black ink, ink set, ink jet recording method, ink cartridge, recording unit, and ink jet recording apparatus” (Canon Kabushiki Kaisha, priority 2004, dated 2006).

Assay: Relative permittivity of water-soluble organic solvent (LCR meter)
Type: physicochemical
Settings: not given
Protocol: The relative permittivity of the water-soluble organic solvent of various types was measured with LCR Meter 4284A (manufactured by Hewlett-Packard Japan, Ltd.) under conditions of a room temperature of 20° C. and a measurement frequency of 1 MHz.
With OCCO [Ethylene glycol] the “Relative permittivity (measurement frequency: 1 MHz)” value (“Relative permittivity” for short) was 38.1.
With OCCCCO [1,4-Butanediol] the “Relative permittivity” value was 31.3.

Same assay, conditions: room temperature of 20° C., 1 MHz
For O=C1CCCN1 [2-Pyrrolidone], the “Relative permittivity” value was 27.5.
In the case of CC(O)CO (stereo not drawn) [1,2-Propanediol], the “Relative permittivity” value is reported as 32.2.
In the case of OCCCCC(O)CO (stereo not drawn) [1,2,6-Hexanetriol], the “Relative permittivity” value is reported as 28.5.
For OCC(O)CO [Glycerol], the “Relative permittivity” value was 43.0.
